Molecules are shown by their SMILES. pIC50: −log10 of the molar value.

Here are results for 25 compounds from patent US20230374015A1, “INHIBITORS OF FIBROBLAST GROWTH FACTOR RECEPTOR KINASES” (Kinnate Biopharma Inc., priority 2020, published 2023).

The target in this assay is FGFR2 (Homo sapiens, UniProt P21802). Description: FGFR2 Kinase Protocol - Condition 2 (Reaction Biology HotSpot radiometric kinase assay, no preincubation). The assay is classed as biochemical. The settings on record: poly[Glu:Tyr] (4:1) 0.2 mg/ml, ATP 100 microM, 2 hr room temperature. An outline of the steps: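 Ten-point, 3-fold compound dilutions were tested against wildtype or V564F FGFR2 with 100 µM ATP (33P-labelled), no preincubation, and 0.2 mg/ml poly[Glu:Tyr] (4:1) substrate. After 2 hr at room temperature, incorporation was read on P81 filter paper; IC50 fitted from activity remaining relative to vehicle.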
Chain of FGFR2 (P21802 22-821): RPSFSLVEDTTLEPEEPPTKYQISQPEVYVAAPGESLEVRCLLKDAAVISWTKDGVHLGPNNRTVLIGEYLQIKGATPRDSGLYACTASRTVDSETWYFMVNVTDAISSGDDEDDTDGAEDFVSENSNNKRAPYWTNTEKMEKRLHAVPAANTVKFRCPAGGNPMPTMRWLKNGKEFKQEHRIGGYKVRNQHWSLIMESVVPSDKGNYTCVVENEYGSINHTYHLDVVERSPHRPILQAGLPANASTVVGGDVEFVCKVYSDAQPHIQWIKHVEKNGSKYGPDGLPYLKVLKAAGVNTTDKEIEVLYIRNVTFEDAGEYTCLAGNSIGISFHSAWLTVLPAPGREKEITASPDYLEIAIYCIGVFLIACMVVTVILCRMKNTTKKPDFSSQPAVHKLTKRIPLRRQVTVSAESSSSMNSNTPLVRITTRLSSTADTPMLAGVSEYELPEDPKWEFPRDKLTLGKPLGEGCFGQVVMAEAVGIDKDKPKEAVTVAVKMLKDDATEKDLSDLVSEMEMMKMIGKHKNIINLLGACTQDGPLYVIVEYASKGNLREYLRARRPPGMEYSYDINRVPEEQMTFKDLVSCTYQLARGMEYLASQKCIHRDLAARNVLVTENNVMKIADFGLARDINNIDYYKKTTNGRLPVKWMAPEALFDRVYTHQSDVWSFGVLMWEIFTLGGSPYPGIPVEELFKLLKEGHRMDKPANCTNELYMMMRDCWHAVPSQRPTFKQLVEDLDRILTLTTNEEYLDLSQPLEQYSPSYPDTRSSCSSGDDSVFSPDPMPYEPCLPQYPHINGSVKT
With `C=CC(=O)N1C[C@@H](n2cc(C#Cc3cc4ncn(C5CC5)c4cc3F)c3c(N)ncnc32)C[C@@H]1COC` [Example 110, 1-[(2R,4S)-4-[4-Amino-5-[2-(1-cyclopropyl-6-fluoro-1,3-benzodiazol-5-yl)ethynyl]pyrrolo[2,3-d]pyrimidin-7-yl]-2-(methoxymethyl)pyrrolidin-1-yl]prop-2-en-1-one], the pIC50 (commonly the negative decadic logarithm of the IC50, by convention in mol/L) is no less than 7.00.

`C=CC(=O)N1C[C@@H](n2nc(C#Cc3c(F)cc4c(nc(C)n4C)c3F)c3c(N)nccc32)C[C@@H]1CC#N` [Example 39, 2-((2R,4S)-1-acryloyl-4-(4-amino-3-((4,6-difluoro-1,2-dimethyl-1H-benzo[d]imidazol-5-yl)ethynyl)-1H-pyrazolo[4,3-c]pyridin-1-yl)pyrrolidin-2-yl)acetonitrile] gave a pIC50 of no less than 7.00.

In turn, `C=CC(=O)N1C[C@@H](n2nc(C#Cc3cc4ncn(C)c4cc3F)c3c(N)ncnc32)C[C@@H]1COC(F)(F)F` [Example 57, 1-[(2R,4S)-4-[4-Amino-3-[2-(6-fluoro-1-methyl-1,3-benzodiazol-5-yl)ethynyl]pyrazolo[3,4-d]pyrimidin-1-yl]-2-[(trifluoromethoxy)methyl]pyrrolidin-1-yl]prop-2-en-1-one] had a pIC50 of no less than 7.00.

With `C=CC(=O)N1C[C@@H](n2nc(C#Cc3ccc4nn(C)cc4c3)c3c(N)ncnc32)C[C@@H]1COC` [Example 41, 1-[(2R,4S)-4-[4-amino-3-[2-(2-methylindazol-5-yl)ethynyl]pyrazolo[3,4-d]pyrimidin-1-yl]-2-(methoxymethyl)pyrrolidin-1-yl]prop-2-en-1-one], the pIC50 was 6.00 to 7.00.

As for `C=CC(=O)N1CC[C@H](n2nc(C#Cc3cc4ncn(C)c4cc3Cl)c3c(N)nccc32)C1` [Example 137, (S)-1-(3-(4-Amino-3-((6-chloro-1-methyl-1H-benzo[d]imidazol-5-yl)ethynyl)-1H-pyrazolo[4,3-c]pyridin-1-yl)pyrrolidin-1-yl)prop-2-en-1-one], the pIC50 was no less than 7.00.

`C=CC(=O)N1C[C@@H](n2cc(C#Cc3cc4ncn(CC)c4cc3Cl)c3c(N)ncnc32)C[C@@H]1COC` [Example 93, 1-[(2R,4S)-4-[4-Amino-5-[2-(6-chloro-1-ethyl-1,3-benzodiazol-5-yl)ethynyl]pyrrolo[2,3-d]pyrimidin-7-yl]-2-(methoxymethyl)pyrrolidin-1-yl]prop-2-en-1-one] had a pIC50 of no less than 7.00.

Compound `C=CC(=O)N1C[C@@H](n2nc(C#Cc3c(F)cc4c(cnn4C)c3F)c3c(N)nccc32)C[C@@H]1COC` [Example 50, 1-((2R,4S)-4-(4-amino-3-((4,6-difluoro-1-methyl-1H-indazol-5-yl)ethynyl)-1H-pyrazolo[4,3-c]pyridin-1-yl)-2-(methoxymethyl)pyrrolidin-1-yl)prop-2-en-1-one] showed a pIC50 of no less than 7.00.

With `C=CC(=O)N1CC[C@H](n2nc(C#Cc3cc4ncn(CC)c4c(F)c3Cl)c3c(N)nccc32)C1` [Example 136, (S)-1-(3-(4-Amino-3-((6-chloro-1-ethyl-7-fluoro-1H-benzo[d]imidazol-5-yl)ethynyl)-1H-pyrazolo[4,3-c]pyridin-1-yl)pyrrolidin-1-yl)prop-2-en-1-one], the pIC50 is no less than 7.00.

`C=CC(=O)N1CC[C@H](n2nc(C#Cc3cc4ncn(C5CC5)c4c(F)c3F)c3c(N)ncnc32)C1` [Example 194, 1-[(3S)-3-{4-Amino-3-[2-(1-cyclopropyl-6,7-difluoro-1,3-benzodiazol-5-yl)ethynyl]pyrazolo[3,4-d]pyrimidin-1-yl}pyrrolidin-1-yl]prop-2-en-1-one] gave a pIC50 of no less than 7.00.

As to `C=CC(=O)N1C[C@@H](n2nc(C#Cc3c(Cl)cc4c(nc(C)n4C)c3F)c3c(N)nccc32)C[C@@H]1COC` [Example 103, 1-((2R,4S)-4-(4-Amino-3-((6-chloro-4-fluoro-1,2-dimethyl-1H-benzo[d]imidazol-5-yl)ethynyl)-1H-pyrazolo[4,3-c]pyridin-1-yl)-2-(methoxymethyl)pyrrolidin-1-yl)prop-2-en-1-one], the pIC50 was no less than 7.00.

On to `C=CC(=O)N1C[C@@H](n2nc(C#Cc3cc4ncn(CC)c4cc3F)c3c(N)ncnc32)C[C@@H]1C(F)F` [Example 170, 1-((2R,4S)-4-(4-amino-3-((1-ethyl-6-fluoro-1H-benzo[d]imidazol-5-yl)ethynyl)-1H-pyrazolo[3,4-d]pyrimidin-1-yl)-2-(difluoromethyl)pyrrolidin-1-yl)prop-2-en-1-one], for which the pIC50 is no less than 7.00.

In turn, `C=CC(=O)N1CC[C@H](n2nc(C#Cc3cc4nc(C)n(C)c4c(F)c3F)c3c(N)ncnc32)C1` [Example 189, 1-[(3S)-3-{4-Amino-3-[2-(6,7-difluoro-1,2-dimethyl-1,3-benzodiazol-5-yl)ethynyl]pyrazolo[3,4-d]pyrimidin-1-yl}pyrrolidin-1-yl]prop-2-en-1-one] showed a negative logarithm of the IC50 (pIC50) of no less than 7.00.

Consider `C=CC(=O)N1C[C@@H](n2nc(C#Cc3cc4ncn(CC)c4cc3F)c3c(N)ncnc32)C[C@@H]1COC` [Example 77, 1-[(2R,4S)-4-[4-Amino-3-[2-(1-ethyl-6-fluoro-1,3-benzodiazol-5-yl)ethynyl]pyrazolo[3,4-d]pyrimidin-1-yl]-2-(methoxymethyl)pyrrolidin-1-yl]prop-2-en-1-one], for which the pIC50 is no less than 7.00.

In turn, `C=CC(=O)N1C[C@@H](n2nc(C#Cc3cc4ncn(CC)c4cc3F)c3c(N)nccc32)C[C@@H]1C(F)F` [Example 171, 1-((2R,4S)-4-(4-amino-3-((1-ethyl-6-fluoro-1H-benzo[d]imidazol-5-yl)ethynyl)-1H-pyrazolo[4,3-c]pyridin-1-yl)-2-(difluoromethyl)pyrrolidin-1-yl)prop-2-en-1-one] gave a pIC50 of no less than 7.00.

`C=CC(=O)N1C[C@@H](n2nc(C#Cc3cc4ncn(CC)c4cc3F)c3c(N)nccc32)C[C@@H]1COC(F)(F)F` [Example 81, 1-[(2R,4S)-4-[4-Amino-3-[2-(1-ethyl-6-fluoro-1,3-benzodiazol-5-yl)ethynyl]pyrazolo[4,3-c]pyridin-1-yl]-2-[(trifluoromethoxy)methyl]pyrrolidin-1-yl]prop-2-en-1-one] gave a pIC50 of no less than 7.00.

Regarding `C=CC(=O)N1C[C@@H](n2nc(C#Cc3cc4ncn(C)c4cc3Cl)c3c(N)ncnc32)C[C@@H]1C(F)F` [Example 179, 1-((2R,4S)-4-(4-amino-3-((6-chloro-1-methyl-1H-benzo[d]imidazol-5-yl)ethynyl)-1H-pyrazolo[3,4-d]pyrimidin-1-yl)-2-(difluoromethyl)pyrrolidin-1-yl)prop-2-en-1-one], the pIC50 is no less than 7.00.

For `C=CC(=O)N1C[C@@H](n2nc(C#Cc3ccc4ocnc4c3)c3c(N)ncnc32)C[C@@H]1COC` [Example 115, 1-[(2R,4S)-4-[4-Amino-3-[2-(1,3-benzoxazol-5-yl)ethynyl]pyrazolo[3,4-d]pyrimidin-1-yl]-2-(methoxymethyl)pyrrolidin-1-yl]prop-2-en-1-one], the pIC50 was no less than 7.00.

The compound `C=CC(=O)N1C[C@@H](n2nc(C#Cc3cc4ncn(CC)c4c(F)c3Cl)c3c(N)ncnc32)C[C@@H]1CC#N` [Example 173, 2-[(2R,4S)-4-{4-Amino-3-[2-(6-chloro-1-ethyl-7-fluoro-1,3-benzodiazol-5-yl)ethynyl]pyrazolo[3,4-d]pyrimidin-1-yl}-1-(prop-2-enoyl)pyrrolidin-2-yl]acetonitrile] gave a pIC50 of no less than 7.00.

Regarding `C=CC(=O)N1CC[C@H](c2nc(C#Cc3cc4ncn(C5CC5)c4cc3F)c3c(N)nccn23)C1` [Example 201, 1-[(3 S)-3-{8-Amino-1-[2-(1-cyclopropyl-6-fluoro-1,3-benzodiazol-5-yl)ethynyl]imidazo[1,5-a]pyrazin-3-yl}pyrrolidin-1-yl]prop-2-en-1-one], the pIC50 is 6.00 to 7.00.

In turn, `C=CC(=O)N1C[C@@H](n2nc(C#Cc3cc4ncn(C5CC5)c4cc3F)c3c(N)ncnc32)C[C@@H]1C(F)F` [Example 178, 1-((2R,4S)-4-(4-amino-3-((1-cyclopropyl-6-fluoro-1H-benzo[d]imidazol-5-yl)ethynyl)-1H-pyrazolo[3,4-d]pyrimidin-1-yl)-2-(difluoromethyl)pyrrolidin-1-yl)prop-2-en-1-one] showed a pIC50 of no less than 7.00.

For `C=CC(=O)N1CC[C@H](n2nc(C#Cc3cc4ncn(CC)c4cc3F)c3c(N)ncnc32)C1` [Example 152, 1-[(3S)-3-{4-Amino-3-[2-(1-ethyl-6-fluoro-1,3-benzodiazol-5-yl)ethynyl]pyrazolo[3,4-d]pyrimidin-1-yl}pyrrolidin-1-yl]prop-2-en-1-one], the pIC50 was no less than 7.00.

In turn, `[2H]C([2H])([2H])OC[C@H]1C[C@H](n2nc(C#Cc3cc4ncn(CC)c4cc3Cl)c3c(N)ncnc32)CN1C(=O)C=C` [Example 135, 1-[(2R,4S)-4-[4-Amino-3-[2-(6-chloro-1-ethyl-1,3-benzodiazol-5-yl)ethynyl]pyrazolo[3,4-d]pyrimidin-1-yl]-2-[(2H3)methoxymethyl]pyrrolidin-1-yl]prop-2-en-1-one] gave a pIC50 of no less than 7.00.

Take `C=CC(=O)N1C[C@@H](n2nc(C#Cc3ccc4nn(C)cc4c3)c3c(N)nccc32)C[C@@H]1COC` [Example 36, 1-[(2R,4S)-4-[4-amino-3-[2-(2-methylindazol-5-yl)ethynyl]pyrazolo[4,3-c]pyridin-1-yl]-2-(methoxymethyl)pyrrolidin-1-yl]prop-2-en-1-one]: the pIC50 is 6.00 to 7.00.

As to `C=CC(=O)N1CC[C@H](n2nc(C#Cc3cc4ncn(C5CC5)c4cc3Cl)c3c(N)ncnc32)C1` [Example 191, 1-[(3S)-3-{4-Amino-3-[2-(6-chloro-1-cyclopropyl-1,3-benzodiazol-5-yl)ethynyl]pyrazolo[3,4-d]pyrimidin-1-yl}pyrrolidin-1-yl]prop-2-en-1-one], the pIC50 is no less than 7.00.

For `C=CC(=O)N1C[C@@H](n2nc(C#Cc3cc4ncn(CC)c4cc3F)c3c(N)ncnc32)C[C@@H]1COC(F)(F)F` [Example 71, 1-[(2R,4S)-4-[4-amino-3-[2-(1-ethyl-6-fluoro-1,3-benzodiazol-5-yl)ethynyl]pyrazolo[3,4-d]pyrimidin-1-yl]-2-[(trifluoromethoxy)methyl]pyrrolidin-1-yl]prop-2-en-1-one], the pIC50 was no less than 7.00.
